The values below come from PMC6009932, “Small molecule purine and pseudopurine derivatives: synthesis, cytostatic evaluations and investigation of growth inhibitory effect in non-small cell lung cancer A549” (Journal of Enzyme Inhibition and Medicinal Chemistry, 2017).

Series [1] has as its system A549 (lung carcinoma). Description: Proliferation assay (MTT, 72 h) on A549. In kind it is cell-based. Conditions: Homo sapiens, A549 lung adenocarcinoma. The protocol: (§1) Human carcinoma cell lines A549 (lung carcinoma), HeLa (cervical carcinoma), SW620 (colorectal adenocarcinoma, metastatic), and CFPAC-1 (pancreatic cancer, derived from metastatic: liver), normal human lung (WI38) and foreskin (HFF-1) fibroblasts were obtained from the American Type Culture Collection (ATCC). Cells were cultured in humidified atmosphere at 37 °C with 5% CO2. As growth medium, Dulbecco’s modified Eagle medium (DMEM) was used with the addition of foetal bovine serum (10%), L-glutamine (2 mM) and antibiotics: streptomycin (100 µg/ml) and penicillin (100 U/ml).
(§2) Cells were seeded onto 96-well microtiter plates at a seeding density of 3000 cells/well for carcinoma cell lines, and 5000 cells/well for normal human fibroblasts. The next day, cells were treated with test agents in five different concentrations (0.01–100 µM) and further incubated for 72 h. […] Following 72 h incubation, the MTT assay was performed and measured absorbances were transformed into percentage of cell growth as described previously. Results were obtained from three independent experiments. IC50 values were calculated using linear regression analysis and results were statistically analysed by ANOVA, Tukey post-hoc test (p < .05).

In series [2] the test system is CFPAC-1 (ductal pancreatic adenocarcinoma). Description: Proliferation assay (MTT, 72 h) on CFPAC-1. It is filed as cell-based. Conditions: Homo sapiens. How it is done: as §1, §2
Series [3] relates to HeLa (cervical carcinoma). Description: Proliferation assay (MTT, 72 h) on HeLa. In kind it is cell-based. Particulars: Homo sapiens. How it is done: as §1, §2
For series [4], the system named is SW620 (colorectal adenocarcinoma, metastatic). In words: Proliferation assay (MTT, 72 h) on SW620. In kind it is cell-based. Particulars: Homo sapiens, SW-620. How it is done:
as §1, §2

The subject of series [5] is HFF-1 normal human foreskin fibroblasts. In words: Proliferation assay (MTT, 72 h) on normal foreskin fibroblasts HFF-1. It is filed as cell-based. Conditions: compounds 11a–e tested in HFF-1 cell line, read-out: IC50 WI38/HFF-1 (HFF-1). How it is done: as §1, §2
The subject of series [6] is WI38 normal human lung fibroblasts. In words: Proliferation assay (MTT, 72 h) on normal lung fibroblasts WI38. It is filed as cell-based. Conditions: WI-38, read-out: IC50 WI38/HFF-1 (WI38). The protocol: as §1, §2
The test system of series [7] is A549 cells. In words: Annexin V-FITC assay for apoptosis detection. In kind it is cell-based, human. The protocol:
Staining of the cells was performed by Annexin-V-FITC Staining kit (Santa Cruz Biotechnology, Dallas, TX) according to the manufacturer’s instructions. Cells were visualised by fluorescent microscope (Olympus) at magnification of 40×.
Further biological evaluations of compound 12b which was identified as a candidate were performed in order to investigate whether its antiproliferative effect in non-small cell lung cancer (A549) could be associated with induction of apoptosis.

The test system of series [8] is GPLD1. Description: Western blot analysis of GPLD1 in A549 cells. It is filed as cell-based, human. Particulars: A549, 2 × IC50, 48 h. The protocol: (§3) Cells were seeded in 6-well plates in the concentration depending on tested cell line varying from 1 × 10^5 to 2 × 10^5 cells/well. […] Following treatment, cells were lysed with RIPA buffer supplemented with protease and phosphatase inhibitors (Roche). Total proteins (50 µg) were resolved on 10 or 12% polyacrilamide gels, depending on protein size, and transferred onto PVDF membranes that were blocked for 1 h with either 4% BSA or 5% non-fat milk prepared in tris-buffered saline (TBST). Membranes were probed with primary antibodies against GPLD1 (Abcam), PDGFRβ, p-IGF-1Rβ, p-p38 MAPK, and p-NF-κB-p65 from cell signalling technology at 4 °C overnight. The next day, membranes were washed in TBST and probed with horseradish peroxidase-conjugated secondary antibodies goat anti-mouse (Santa Cruz Biotechnology) or goat anti-rabbit (Santa Cruz Biotechnology). Protein bands were visualised using chemiluminescence substrate and ImageQuant LAS 500 (GE Healthcare, Chicago, IL). Following visualisation, protein band density was analysed by Quantity One 1-D Analysis Software (Bio-Rad, Hercules, CA).

Series [9] has as its system PDGFRβ. Description: Western blot analysis of PDGFR in A549 cells. In kind it is cell-based, human. Conditions: A549, 2 × IC50, 48 h. The protocol: as §3
(In general: Immunoblotting shows a protein as a band on a membrane.)

In series [10] the test system is p-IGF-1Rβ. In words: Western blot analysis of p-IGF-1Rβ in A549 cells. Particulars: A549, 2 × IC50, 48 h. It is filed as cell-based, human. The protocol: as §3
Series [11] concerns p-NF-κB-p65. Description: Western blot analysis of p-NF-κB-p65 in A549 cells. It is filed as cell-based, human. Conditions: A549, 2 × IC50, 48 h. How it is done: as §3
Series [12] has as its system p-p38 MAPK. In words: Western blot analysis of p-p38 MAPK in A549 cells. It is filed as cell-based, human. Conditions: A549, 2 × IC50, 48 h. The protocol: as §3
Setting [13] is: A549, 48 h, 2 × IC50, versus control.

In general, melting point refers to the temperature of the solid-liquid transition.

Some results are limits rather than exact numbers.

Consider `Fc1ccccc1-n1cc(Cn2ccc3ccccc32)nn1` [Compound 11d, 1-{[1-(2-Fluorophenyl)-1H-1,2,3-triazol-4-yl]methyl}-1H-indole], for which the IC50 is 51.3 µM in series [1]; 85.6 µM in series [2]; 71.2 µM in series [3]; 44.8 µM in [4]; 40.4 µM in series [5].

`Fc1ccc(-n2cc(Cn3ccc4ccccc43)nn2)cc1` [Compound 11a, 1-{[1-(4-Fluorophenyl)-1H-1,2,3-triazol-4-yl]methyl}-1H-indole]: the IC50 was 44 µM in series [1]; greater than 100 µM in series [2]; greater than 100 µM in series [3]; 43.3 µM in [4]; greater than 100 µM in series [5].

`O=c1cc(Cn2cc(Cn3ccc4c(Cl)ncnc43)nn2)c2ccc(O)cc2o1` [Compound 8e, 4-{[4-((4-Chloro-7H-pyrrolo[2,3-d]pyrimidin-7-yl)methyl)-1H-1,2,3-triazol-1-yl]methyl}-7-hydroxy-2H-chromen-2-one] yielded a melting point of 202 to 204 °C. The same compound came in with an IC50 in series [1] of 69.2 µM. The same compound showed an IC50 in series [2] of 36.3 µM. Also, in series [3], the IC50 stood at 33.6 µM. For the same compound, in series [4], the IC50 was found to be 73.5 µM. Besides, the IC50 in series [6] stood at 39.9 µM.

As to `Clc1ccc(-n2cc(Cn3cnc4ccccc43)nn2)cc1` [Compound 12b, 1-{[1-(4-chlorophenyl)-1H-1,2,3-triazol-4-yl]methyl}-1H-benzo[d]imidazole], the IC50 in series [1] is 0.79 µM; in series [2], 52.6 µM; in series [3], 42.2 µM; in series [4] it was 91.2 µM; in series [6], 38.1 µM. The Secondary necrotic cells in [7] (A549, 48 h, 2 × IC50, PI+) is reported as 2.39%. In addition, in series [7] (A549, 48 h, 2 × IC50, PI+/Ann V+), the “Late apoptotic/Primary necrotic cells” value is recorded as 19.76%. The compound further showed an Early apoptotic cells in series [7] (A549, 48 h, 2 × IC50, PI−/Ann V+) of 31.14%. Moreover, in series [7] (A549, 48 h, 2 × IC50, PI−/Ann V−), the Viable cells came to 46.71%. In addition, the “increase in early apoptotic cell population” value in series [7] (setting [13]) is reported as 30.62%. Moreover, in series [7] (setting [13]), the “increase in late apoptotic/necrotic cell population” value is reported as 19.76%. Further, in series [7] (A549 cells), the induction of apoptosis entry is given as “induced apoptosis”. Moreover, the “expression level of GPLD1 protein” value in series [8] is reported as “dramatically reduced”. Besides, the “expression of PDGFR” value in series [9] is “downregulated”. Moreover, the “expression of p-IGF-1Rβ” value in [10] is recorded as “downregulated”. Also, in series [11], the “p-NF-κB-p65 subunit expression level” value was “significant reduction”. In addition, the “expression level of p-p38 MAP kinase” value in series [12] is “marked decline”.

With `Clc1ccc(-n2cc(Cn3ccc4ccccc43)nn2)cc1` [Compound 11b, 1-{[1-(4-Chlorophenyl)-1H-1,2,3-triazol-4-yl]methyl}-1H-indole], the IC50 in [1], in series [2], in series [3], in series [4] and in [5] was greater than 100 µM throughout.

Compound `O=c1cc(Cn2cc(Cn3ccc4ccccc43)nn2)c2ccc(O)cc2o1` [Compound 11e, 4-{[4-((1H-Indol-1-yl)methyl)-1H-1,2,3-triazol-1-yl]methyl}-7-hydroxy-2 H-chromen-2-one] showed a melting point of 155 to 158 °C. In series [1], this compound had an IC50 of 75.4 µM. Besides, the IC50 in series [2] is greater than 100 µM. The compound also displayed an IC50 in [3] of 83 µM. In series [4], this compound displayed an IC50 of 68.5 µM. Further, in [5], the IC50 is 40 µM.

Compound `FC(F)(F)c1ccc(-n2cc(Cn3cnc4ccnc(Cl)c43)nn2)cc1` [Compound 7c, 4-Chloro-3-{[1-(4-(trifluoromethyl)phenyl)-1H-1,2,3-triazol-4-yl]methyl}-3H-imidazo[4,5-c]pyridine] registered a melting point of 183 to 185 °C. This compound had an IC50 in [1] greater than 100 µM. In addition, the IC50 in series [2] worked out at 89.2 µM. Also, the IC50 in [3] was determined as 36.8 µM. The compound also had an IC50 in series [4] of 69 µM. Further, in series [6], the IC50 was determined as 19.4 µM.

Take `FC(F)(F)c1ccc(-n2cc(Cn3ccc4ccccc43)nn2)cc1` [Compound 11c, 1-{[1-(4-(Trifluoromethyl)phenyl)-1H-1,2,3-triazol-4-yl]methyl}-1H-indole]: the IC50 in series [1], in series [2], in series [3], in [4] and in [5] was greater than 100 µM each time.

For the compound `FC(F)(F)c1ccc(-n2cc(Cn3cc(Br)c4c(Cl)ncnc43)nn2)cc1` [Compound 9c, 5-Bromo-4-chloro-7-{[1-(4-(trifluoromethyl)phenyl)-1H-1,2,3-triazol-4-yl]methyl}-7H-pyrrolo[2,3-d]pyrimidine], the melting point was in the range of 220 to 221 °C. In [1], this compound gave an IC50 of 66.4 µM. In series [2], this compound registered an IC50 of 62.8 µM. For the same compound, the IC50 in series [3] was 32.9 µM. The compound also had an IC50 in series [4] of 55.7 µM. Moreover, the IC50 in series [6] stood at 57.5 µM.

In the case of `Fc1ccccc1-n1cc(Cn2cnc3c(Cl)ncnc32)nn1` [Compound 4d, 6-Chloro-9-{[1-(2-fluorophenyl)-1H-1,2,3-triazol-4-yl]methyl}-9H-purine], the melting point is 143 to 145 °C. In [1], the IC50 is 54.6 µM. The compound further yielded an IC50 in [2] of 31.1 µM. For the same compound, in series [3], the IC50 worked out at 33.2 µM. The same compound had an IC50 in [4] of 41.8 µM. Moreover, in series [6], the IC50 worked out at 23.9 µM.

For the compound `Fc1ccc2c(ccn2Cc2cn(-c3ccc(C(F)(F)F)cc3)nn2)c1` [Compound 10c, 5-Fluoro-1-{[1–(4-(trifluoromethyl)phenyl)-1 H-1,2,3-triazol-4-yl]methyl}-1 H-indole], the melting point is 151 to 154 °C. Moreover, in series [1], the IC50 was found to be 71.6 µM. Moreover, the IC50 in series [2] amounted to 64.7 µM. In series [3], this compound had an IC50 of 53 µM. The same compound showed an IC50 in series [4] of 54.2 µM. In addition, the IC50 in series [6] worked out at 24 µM.

`O=c1cc(Cn2cc(Cn3cnc4ncnc(Cl)c43)nn2)c2ccc(O)cc2o1` [Compound 6e, 4-{[4-((6-Chloro-7H-purin-7-yl)methyl)-1H-1,2,3-triazol-1-yl]methyl}-7-hydroxy-2H-chromen-2-one] returned a melting point greater than 250 °C. Further, in [1], the IC50 was greater than 100 µM. In series [2], this compound came in with an IC50 greater than 100 µM. In addition, the IC50 in series [3] is greater than 100 µM. In series [4], this compound had an IC50 greater than 100 µM. Besides, in series [6], the IC50 came to 73.6 µM.
